Activity calls are given as the source filed them. No cut-off for these calls is given here. Some results are limits rather than exact numbers.

System in the first series: not listed separately
The series is described as follows: Chemical stability of the compound in THF solution after 1 day. The class given is physicochemical. To be noted: 24 h.
Turning to `Cn1s/c(=N/c2ccc(Cl)cc2)nc1-c1ccccc1`, the Stability result was “Unstable”.

The next series has as its system Pseudoperonospora cubensis. The series can be described thus: Fungicidal activity against Pseudoperonospora cubensis infected cucumber cv. Sagamihanjiro seedling assessed as inhibition of zoospore liberation from zoosporangia after 4 days by microscopic analysis in presence of cysteine.
Conditions: not given
The class given is functional, organism-based.
For `Cn1s/c(=N/c2ccc(Cl)cc2)nc1-c1ccccc1`, the inhibition result is “inactive”.

System in the next series: not listed separately
The series can be described thus: Chemical stability of the compound in ethanol solution after 1 week. It is filed as physicochemical. To be noted: 168 h.
For the compound `Cn1s/c(=N/c2ccc(Cl)cc2)nc1-c1ccccc1`, the Stability result is listed as “Stable”.

The species named for a further series is Homo sapiens. The series is described as follows: Inhibition of ADH (unknown origin) at 3 ug/ml after 1 hr.
Conditions: not given
For the compound `Cn1s/c(=N/c2ccc(Cl)cc2)nc1-c1ccccc1`, the inhibition result is “Active”.

System in a further series: not listed separately
The series is described as follows: Chemical stability of the compound in acetone solution after 1 day. It is filed as physicochemical. To be noted: 24 h.
Take `Cn1s/c(=N/c2ccc(Cl)cc2)nc1-c1ccccc1`: the Stability entry is listed as “Unstable”.

System in the next series: not listed separately
The series can be described thus: Chemical stability of the compound in acetonitrile solution after 1 day. It is filed as physicochemical. As to conditions: 24 h.
Consider `Cn1s/c(=N/c2ccc(Cl)cc2)nc1-c1ccccc1`, for which the Stability entry is given as “Unstable”.

The next series deals with Pseudoperonospora cubensis. The series is described as follows: Fungicidal activity against Pseudoperonospora cubensis infected cucumber cv. Sagamihanjiro seedling assessed as inhibition of zoospore liberation from zoosporangia after 4 days by microscopic analysis. The class given is functional, organism-based.
Conditions: not given
`Cn1s/c(=N/c2ccc(Cl)cc2)nc1-c1ccccc1`: the inhibition entry is “Active”.

Another series has as its system Pseudoperonospora cubensis. The series is described as follows: Fungicidal activity against Pseudoperonospora cubensis infected in cucumber cv. Sagamihanjiro seedling assessed as reduction in leaf lesion after 4 days by pot test. It is filed as functional, organism-based.
Conditions: not given
For `Clc1ccc(/N=c2\nc3n(s2)CCS3)cc1`, the EC50 came to 68.6 ppm. The same measure, in the same setting: the figure for `Cc1ccc(/N=c2\nc(-c3ccc(Cl)cc3)n(C)s2)cc1` is 9.2 ppm; for `Cn1s/c(=N/c2ccccc2)nc1-c1ccc(Cl)cc1` it is 23.4 ppm. Regarding `Cn1s/c(=N/c2ccc([N+](=O)[O-])cc2)nc1-c1ccccc1`, the EC50 was greater than 400 ppm. On to `Cn1s/c(=N/c2ccc(Br)cc2)nc1-c1ccccc1`, for which the EC50 was found to be 17.9 ppm. Same read-out and setting: for `Cn1s/c(=N/c2ccc(Cl)cc2)nc1-c1ccc([N+](=O)[O-])cc1` the value was 29.7 ppm.

As for `Clc1ccc(/N=c2\nc3n(s2)CCCS3)cc1`, the EC50 is recorded as greater than 400 ppm. Take `Clc1ccc(/N=c2\nc(-c3ccc(Cl)cc3)n(Cc3ccccc3)s2)cc1`: the EC50 is 43.3 ppm. `Cn1s/c(=N/c2ccc(O)cc2)nc1-c1ccccc1`: the EC50 came to 39.6 ppm. In the case of `COc1n/c(=N\c2ccc(Cl)cc2)sn1C`, the EC50 is recorded as greater than 400 ppm. Consider `Cc1n/c(=N\c2ccc(Cl)cc2)sn1C`, for which the EC50 worked out at 66.9 ppm. `Cn1s/c(=N/c2cccc(Cl)c2)nc1-c1ccc(Cl)cc1`: the EC50 was determined as 25.9 ppm. `CSc1n/c(=N\c2ccc(Cl)cc2)sn1C`: the EC50 is 94.9 ppm.

Regarding `CCCn1s/c(=N/c2ccc(Cl)cc2)nc1-c1ccccc1`, the EC50 was 9.9 ppm. With `CCCn1s/c(=N/c2ccc(C)cc2)nc1-c1ccccc1`, the EC50 is given as 141.5 ppm. Regarding `C/N=C(/N=c1\snc(-c2ccccc2)n1-c1ccc(Cl)cc1)c1ccccc1`, the EC50 stood at 45.3 ppm. Still for that read-out and setting: for `CCCc1ccc(/N=c2\nc(-c3ccc(Cl)cc3)n(C)s2)cc1` the value was 23.8 ppm; for `Cc1ccc(-c2n/c(=N\c3ccc(Cl)cc3)sn2C)cc1`, 37.4 ppm.

For `CN(C)C(=O)n1s/c(=N/c2ccc(Cl)cc2)nc1-c1ccccc1`, the EC50 is recorded as 87.5 ppm. As for `Cn1s/c(=N/C(=O)c2ccc(Cl)cc2)nc1-c1ccc(Cl)cc1`, the EC50 came to 400 ppm. On to `Cn1s/c(=N/c2ccc(Cl)cc2Cl)nc1-c1ccccc1`, for which the EC50 is recorded as 63.4 ppm.

For `Cn1s/c(=N/c2ccc(Nc3ccccc3)cc2)nc1-c1ccccc1`, the EC50 was 81 ppm. As for `Cn1o/c(=N/c2ccc(Cl)cc2)nc1-c1ccc(Cl)cc1`, the EC50 is reported as greater than 400 ppm. `Br.Cn1s/c(=N/C2CCCCC2)nc1-c1ccccc1`: the EC50 is recorded as greater than 400 ppm.

As to `CCn1s/c(=N/c2ccc(Br)cc2)nc1-c1ccccc1`, the EC50 amounted to 70.2 ppm.

As for `Cc1cccc(/N=c2\nc(-c3ccc(Cl)cc3)n(C)s2)c1C`, the EC50 worked out at 25 ppm.

On to `Cn1s/c(=N/c2ccc(Cl)cc2)nc1SCc1ccccc1`, for which the EC50 was determined as 46.2 ppm. Take `Cn1s/c(=N/c2ccc(C(C)(C)C)cc2)nc1-c1ccc(Cl)cc1`: the EC50 turned out to be 14 ppm. `Cn1s/c(=N/c2cccc(Cl)c2Cl)nc1-c1ccc(Cl)cc1`: the EC50 is recorded as 179 ppm. As to `Cn1s/c(=N/c2ccc(F)cc2)nc1-c1ccc(Cl)cc1`, the EC50 is given as 22.1 ppm.

For `CCn1s/c(=N/c2cccc([N+](=O)[O-])c2)nc1-c1ccccc1`, the EC50 was 63.1 ppm. Turning to `Clc1ccc(Nc2nc(-c3ccccc3)ns2)cc1`, the EC50 entry is on record as “Not Active”. Take `CCSc1n/c(=N\c2ccc(Cl)cc2)sn1C`: the EC50 was 36.2 ppm. Turning to `Cn1s/c(=N/c2ccc(Cl)cc2)nc1-c1ccco1`, the EC50 was found to be 8.4 ppm.

With `CCn1s/c(=N/c2ccc(Cl)cc2)nc1-c1ccc(Cl)cc1`, the EC50 worked out at 80.4 ppm. On the same count and under the same terms, for `Cn1s/c(=N/c2ccc(Cl)cc2)nc1-c1ccc(Cl)c(Cl)c1` the value was 9.5 ppm; for `Cc1cccc(C)c1/N=c1\nc(-c2ccccc2)n(C)s1`, 128.1 ppm; for `CC1(C)Cn2s/c(=N/c3ccc(Cl)cc3)nc2S1`, 35.5 ppm. As for `Cn1s/c(=N/c2ccc(Cl)c(Cl)c2)nc1-c1ccc(Cl)cc1`, the EC50 is on record as 24.7 ppm. Regarding `Cn1s/c(=N/c2ccccc2)nc1-c1ccccc1`, the EC50 turned out to be 45.3 ppm. `Cn1s/c(=N/c2ccc(Cl)cc2)nc1C(Cl)(Cl)Cl`: the EC50 stood at 37 ppm. `Cn1s/c(=N/c2ccc(Cl)cc2)nc1-c1ccccc1`: the EC50 was 5.7 ppm. On the same count and under the same terms, the figure for `CN(C)c1n/c(=N\c2ccc(Cl)cc2)sn1C` is 52.5 ppm; for `C/N=C(/N=c1\sn(-c2ccccc2)c(=S)n1-c1ccc(Cl)cc1)c1ccccc1` it is 33.6 ppm; for `CCc1ccc(/N=c2\nc(-c3ccc(Cl)cc3)n(C)s2)cc1` it is 21.8 ppm. With `Cc1ccc(/N=c2\nc(-c3ccc(Cl)cc3)n(C)s2)cc1C`, the EC50 was found to be 13.2 ppm. On the same count and under the same terms, for `C/N=C(/N=c1\ssc(=S)n1-c1ccc(Cl)cc1)c1ccccc1` the value was 84.1 ppm; for `CC(C)c1n/c(=N\c2ccc(Cl)cc2)sn1C`, 252.7 ppm; for `Cn1s/c(=N/c2ccc(I)cc2)nc1-c1ccccc1`, 100 ppm.

For the compound `CC(C)n1s/c(=N/c2ccc(Cl)cc2)nc1-c1ccccc1`, the EC50 is 72.9 ppm. As to `Cn1s/c(=N/c2ccc(Cl)cc2)nc1-c1ccccc1Cl`, the EC50 stood at 11.6 ppm. In the case of `Cn1s/c(=N/c2ccc(Cl)cc2)nc1-c1cccc(Cl)c1`, the EC50 was 25.2 ppm. The same measure, in the same setting: for `Cn1s/c(=N/c2ccc(Oc3ccc(Cl)cc3)cc2)nc1-c1ccccc1` the value was 31.9 ppm.

Regarding `Cn1s/c(=N/c2ccc(Br)cc2)nc1-c1ccc(Cl)cc1Cl`, the EC50 is recorded as 131.1 ppm.

As for `Cn1s/c(=N/c2ccc(Cl)cc2)nc1-c1ccc(Cl)cc1`, the EC50 was found to be 7.2 ppm. For `CCOC(=O)C1CN(c2ccc(Cl)cc2)/C(=N/C(=N/C)c2ccccc2)S1` (stereo not drawn), the EC50 was 92.8 ppm. Same read-out and setting: the figure for `CN(C)c1ccc(/N=c2\nc(-c3ccc(Cl)cc3)n(C)s2)cc1` is 141.5 ppm; for `CCCCc1ccc(/N=c2\nc(-c3ccc(Cl)cc3)n(C)s2)cc1` it is 30.4 ppm. As to `CN(c1ccccc1)c1n/c(=N\c2ccc(Cl)cc2)sn1C`, the EC50 came out at 37.5 ppm. For `Cn1s/c(=N/c2ccc(Cl)cc2)nc1-c1cc(Cl)cc(Cl)c1`, the EC50 is recorded as 66.8 ppm. `Cc1cccc(/N=c2\nc(-c3ccc(Cl)cc3)n(C)s2)c1`: the EC50 stood at 26.1 ppm.

Take `Clc1ccc(/N=c2\nc(-c3ccc(Cl)cc3)n(-c3ccccc3)s2)cc1`: the EC50 is greater than 400 ppm. On to `Cc1cc(C)cc(/N=c2\nc(-c3ccc(Cl)cc3)n(C)s2)c1`, for which the EC50 is reported as 26.4 ppm. With `CCn1s/c(=N/c2cc(Cl)cc(Cl)c2)nc1-c1ccc(Cl)cc1`, the EC50 was 86.7 ppm. The same measure, in the same setting: the figure for `COc1ccc(/N=c2\nc(-c3ccc(Cl)cc3)n(C)s2)cc1` is 11 ppm; for `CCn1s/c(=N/c2ccc(Cl)cc2)nc1-c1ccccc1` it is 13.6 ppm. For the compound `Cc1ccc(/N=c2\nc(-c3ccccc3)n(C)s2)cc1`, the EC50 was found to be 60.2 ppm.

Regarding `CCN(CC)c1n/c(=N\c2ccc(Cl)cc2)sn1C`, the EC50 is on record as 13.1 ppm.

With `CCc1n/c(=N\c2ccc(Cl)cc2)sn1C`, the EC50 is on record as 352.6 ppm. As for `COc1ccc(-c2n/c(=N\c3ccc(Cl)cc3)sn2C)cc1`, the EC50 turned out to be 132.7 ppm. Turning to `CCOc1n/c(=N\c2ccc(Cl)cc2)sn1C`, the EC50 is reported as 308.1 ppm. With `Cn1s/c(=N/c2ccccc2-c2ccccc2)nc1-c1ccccc1`, the EC50 came out at 30.4 ppm.

`Cn1s/c(=N/c2ccc(-c3ccccc3)cc2)nc1-c1ccccc1`: the EC50 is on record as 23.1 ppm. `Br.CC/N=c1\nc(-c2ccccc2)n(CC)s1`: the EC50 was greater than 400 ppm. For the compound `Cn1s/c(=N/c2ccc(Br)cc2)nc1-c1ccc(Cl)cc1`, the EC50 was 12 ppm.

In the case of `Cn1s/c(=N/c2ccc(Cl)cc2)nc1Cc1ccccc1`, the EC50 is reported as 79.1 ppm.

Source of the values: ChEMBL document CHEMBL3045379, “Synthesis and Fungicidal Activity of 3-1, 2, 4-Thiadiazolines” (J Pestic Sci, 1992).
